Source: patent US11780826B2 (Amgen Inc., priority 2017, dated 2023)

System: Bovine cardiac myofibrils
Assay: In vitro model of dose-dependent myofibril ATPase modulation (AC1.4, pyruvate kinase/lactate dehydrogenase-coupled ATPase assay at pCa25)
Format: biochemical
Details: concentration at which ATPase activity was 1.4-fold higher than the bottom of the dose curve, mean of a minimum of two independent tests
Procedure, shortened: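 Detergent-skinned bovine cardiac myofibrils (typically 0.25-1.0 mg/ml) in Ca-buffered (EGTA/CaCl2) PK/LDH-coupled ATPase assay: 12 mM K-PIPES pH 6.80, 2 mM MgCl2, 1 mM ATP, 1 mM DTT, 0.5 mM NADH, 1.5 mM PEP. Hydrolysis followed at 340 nm; dose response fit to 4-parameter equation; AC1.4 is mean of ≥2 tests.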

| AC1.4 [µM] | SMILES |
| --- | --- |
| 0.2875 | N#CC1CN(S(=O)(=O)N2CCC(F)=C(C(=O)N3CCC[C@@H]3C(=O)NCc3ccc(C(F)(F)F)cc3)C2)C1 [Example 168, 1-((1-((3-cyano-1-azetidinyl)sulfonyl)-4-fluoro-l,2,5,6-tetrahydro-3-pyridinyl)carbonyl)-N-(4-(trifluoromethyl)benzyl)-D-prolinamide] |
| 3.626 | CCS(=O)(=O)c1cccc(C(=O)N2[C@@H](C(=O)NCc3cc(F)c(Cl)cc3F)C[C@H]3C[C@H]32)c1 [Example 617, (1R,3R,5R)-N-(4-chloro-2,5-difluorobenzyl)-2-(3-(ethylsulfonyl)benzoyl)-2-azabicyclo[3.1.0]hexane-3-carboxamide] |
| 7.3925 | CS(=O)(=O)c1cccc(C(=O)N2CC[C@@H]3C[C@]32C(=O)N[C@@H](c2ccc(C(F)(F)F)cc2F)C2CC2)c1 [Example 751, (1R,5R)-N-((R)-cyclopropyl(2-fluoro-4-(trifluoromethyl)phenyl)methyl)-2-(3-(methylsulfonyl)benzoyl)-2-azabicyclo[3.1.0]hexane-1-carboxamide] |
| 0.6167 | CS(=O)(=O)c1cccc(C(=O)N2CCC[C@@H]2C(=O)N[C@@H](c2ccc(Cl)c(F)c2)C2COC2)c1 [Example 255, N-((R)-(4-chloro-3-fluorophenyl)(3-oxetanyl)methyl)-1-(3-(methylsulfonyl)benzoyl)-D-prolinamide] |
| 1.3425 | CS(=O)(=O)c1cc(C(=O)N2C[C@H]3C[C@H]3[C@@H]2C(=O)N[C@@H](c2cc(F)c(Cl)cc2F)C2CC2)ccn1 [Example 393, (1R,2R,5S)-N-((R)-(4-chloro-2,5-difluorophenyl)(cyclopropyl)methyl)-3-((2-(methylsulfonyl)-4-pyridinyl)carbonyl)-3-azabicyclo[3.1.0]hexane-2-carboxamide] |
| 0.0456 | Cc1ccc([C@@H](C)NC(=O)[C@H]2CCCN2C(=O)c2cccc(S(=O)(=O)N3CC(C#N)C3)c2)c(F)c1 [Example 46, 1-((3-((3-cyano-1-azetidinyl)sulfonyl)phenyl)carbonyl)-N-((1R)-1-(2-fluoro-4-methylphenyl)ethyl)-D-prolinamide] |
| 4.5443 | N#CC1CN(S(=O)(=O)c2cccc(C(=O)N3CCC[C@@H]3C(=O)NCc3cccc(C(F)(F)F)n3)c2)C1 [Example 655, 1-((3-((3-cyano-1-azetidinyl)sulfonyl)phenyl)carbonyl)-N-((6-(trifluoromethyl)-2-pyridinyl)methyl)-D-prolinamide] |
| 5.096 | CC1(O)CN(S(=O)(=O)N2CCC[C@H](C(=O)N3C[C@@H](F)C[C@@H]3C(=O)NCc3ccc(C(F)(F)F)cc3)C2)C1 [Example 683, (4S)-4-fluoro-1-(((3S)-1-((3-hydroxy-3-methyl-1-azetidinyl)sulfonyl)-3-piperidinyl)carbonyl)-N-(4-(trifluoromethyl)benzyl)-D-prolinamide] |
| 0.6767 | CS(=O)(=O)c1ccnc(C(=O)N2C[C@@H](F)C[C@@H]2C(=O)N[C@@H](c2cc(F)c(Cl)cc2F)C2CC2)c1 [Example 269, (4S)-N-((R)-(4-chloro-2,5-difluorophenyl)(cyclopropyl)methyl)-4-fluoro-1-((4-(methylsulfonyl)-2-pyridinyl)carbonyl)-D-prolinamide] |
| 0.9744 | CS(=O)(=O)c1ccc(N)c(C(=O)N2CCC[C@@H]2C(=O)N[C@@H](c2ccc(C(F)(F)F)cc2F)C2CC2)c1 [Example 345, 1-(2-amino-5-(methylsulfonyl)benzoyl)-N-((R)-cyclopropyl(2-fluoro-4-(trifluoromethyl)phenyl)methyl)-D-prolinamide] |
| 1.4048 | N#CC1CN(S(=O)(=O)N2CCC[C@H](C(=O)N3CCC[C@@H]3C(=O)NCc3cnc(C(F)(F)F)nc3)C2)C1 [Example 400, 1-(((3S)-1-((3-cyano-1-azetidinyl)sulfonyl)-3-piperidinyl)carbonyl)-N-((2-(trifluoromethyl)-5-pyrimidinyl)methyl)-D-prolinamide] |
| 2.768 | O=C(N[C@@H](c1cc(F)c(C(F)(F)F)cc1F)C1COC1)[C@H]1C[C@H]2C[C@H]2N1C(=O)c1cc(C(F)(F)F)on1 [Example 823, (1R,3R,5R)-N-((R)-(2,5-difluoro-4-(trifluoromethyl)phenyl)(oxetan-3-yl)methyl)-2-(5-(trifluoromethyl)isoxazole-3-carbonyl)-2-azabicyclo[3.1.0]hexane-3-carboxamide] |
| 2.0765 | O=C(NCc1ccc(C(F)(F)F)cc1)[C@H]1CCCN1C(=O)[C@H]1CCCN(S(=O)(=O)N2CC(c3ccc(F)cc3)C2)C1 [Example 477, 1-(((3S)-1-((3-(4-fluorophenyl)-1-azetidinyl)sulfonyl)-3-piperidinyl)carbonyl)-N-(4-(trifluoromethyl)benzyl)-D-prolinamide] |
| 0.2773 | O=C(N[C@@H](c1cc(F)c(Cl)cc1F)C1CC1)[C@H]1C[C@H]2C[C@H]2N1C(=O)c1cncc(S(=O)(=O)C2CC2)c1 [Example 163, (1R,3R,5R)-N-((R)-(4-chloro-2,5-difluorophenyl)(cyclopropyl)methyl)-2-((5-(cyclopropylsulfonyl)-3-pyridinyl)carbonyl)-2-azabicyclo[3.1.0]hexane-3-carboxamide] |
| 8.852 | COc1cccc(C(=O)N2CCC[C@@H]2C(=O)N[C@@H](c2ccc(C(F)(F)F)cc2F)C2CC2)c1 [Example 784, N-((R)-cyclopropyl(2-fluoro-4-(trifluoromethyl)phenyl)methyl)-1-(3-methoxybenzoyl)-D-prolinamide] |
| 0.4809 | CC(C)[C@H](NC(=O)[C@H]1CCCN1C(=O)c1cccc(S(=O)(=O)N2CC(C#N)C2)c1)c1ccc(C(F)(F)F)cc1F [Example 220, 1-(3-((3-cyano-1-azetidinyl)sulfonyl)benzoyl)-N-((1S)-1-(2-fluoro-4-(trifluoromethyl)phenyl)-2-methylpropyl)-D-prolinamide] |
| 0.4603 | CC(C)(C)c1cccc(C(=O)N2[C@@H](C(=O)N[C@@H](c3ccc(C(F)(F)F)cc3F)C3COC3)C[C@H]3C[C@H]32)c1 [Example 213, (1R,3R,5R)-N-((R)-(2-fluoro-4-(trifluoromethyl)phenyl)(3-oxetanyl)methyl)-2-(3-(2-methyl-2-propanyl)benzoyl)-2-azabicyclo[3.1.0]hexane-3-carboxamide] |
| 0.0657 | Cc1cc(C(F)(F)F)ccc1CNC(=O)[C@H]1CCCN1C(=O)[C@H]1CCCN(S(=O)(=O)N2CC(C#N)C2)C1 [Example 60, 1-(((3S)-1-((3-cyano-1-azetidinyl)sulfonyl)-3-piperidinyl)carbonyl)-N-(2-methyl-4-(trifluoromethyl)benzyl)-D-prolinamide] |
| 1.2265 | O=C(N[C@@H](c1cc(F)c(Cl)cc1F)C1CC1)[C@H]1C[C@H]2C[C@H]2N1C(=O)c1cncc(C(F)(F)F)c1 [Example 374, (1R,3R,5R)-N-((R)-(4-chloro-2,5-difluorophenyl)(cyclopropyl)methyl)-2-((5-(trifluoromethyl)-3-pyridinyl)carbonyl)-2-azabicyclo[3.1.0]hexane-3-carboxamide] |
| 0.189 | N#CC1CN(S(=O)(=O)n2cc(C(=O)N3CCC[C@@H]3C(=O)NCc3ccc(C(F)(F)F)cc3)cn2)C1 [Example 123, 1-((1-((3-cyano-1-azetidinyl)sulfonyl)-1H-pyrazol-4-yl)carbonyl)-N-(4-(trifluoromethyl)benzyl)-D-prolinamide] |
| 4.9395 | CS(=O)(=O)c1cc(C(=O)N2CCC[C@@H]2C(=O)N[C@@H](c2ccc(C(F)(F)F)cc2F)C2CC2)ccn1 [Example 675, N-((R)-cyclopropyl(2-fluoro-4-(trifluoromethyl)phenyl)methyl)-1-((2-(methylsulfonyl)-4-pyridinyl)carbonyl)-D-prolinamide] |
| 1.7125 | Cc1cc(CNC(=O)[C@H]2CCCN2C(=O)[C@H]2CCCN(S(=O)(=O)N3CC(C#N)C3)C2)ccc1F [Example 439, 1-(((3S)-1-((3-cyano-1-azetidinyl)sulfonyl)-3-piperidinyl)carbonyl)-N-(4-fluoro-3-methylbenzyl)-D-prolinamide] |
| 6.039 | O=C(N[C@@H](c1cc(F)c(Cl)cc1F)C1CC1)[C@H]1C[C@H]2C[C@H]2N1C(=O)c1cc(C2CC2)ccn1 [Example 713, (1R,3R,5R)-N-((R)-(4-chloro-2,5-difluorophenyl)(cyclopropyl)methyl)-2-((4-cyclopropyl-2-pyridinyl)carbonyl)-2-azabicyclo[3.1.0]hexane-3-carboxamide] |
| 0.5201 | CS(=O)(=O)c1cccc(C(=O)N2CCC[C@@H]2C(=O)N[C@@H](c2ccc(C(F)(F)F)cc2F)C2COC2)c1 [Example 232, N-((R)-(2-fluoro-4-(trifluoromethyl)phenyl)(3-oxetanyl)methyl)-1-(3-(methylsulfonyl)benzoyl)-D-prolinamide] |
| 2.551 | CCNc1ccccc1C(=O)N1CCC[C@@H]1C(=O)N[C@@H](c1ccc(C(F)(F)F)cc1F)C1CC1 [Example 521, N-((R)-cyclopropyl(2-fluoro-4-(trifluoromethyl)phenyl)methyl)-1-(2-(ethylamino)benzoyl)-D-prolinamide] |
| 1.1125 | O=C(N[C@@H](c1cc(F)c(C(F)(F)F)cc1F)C1CC1)[C@H]1C[C@H]2C[C@H]2N1C(=O)c1cncc(C(F)(F)F)c1 [Example 361, (1R,3R,5R)-N-((R)-cyclopropyl(2,5-difluoro-4-(trifluoromethyl)phenyl)methyl)-2-((5-(trifluoromethyl)-3-pyridinyl)carbonyl)-2-azabicyclo[3.1.0]hexane-3-carboxamide] |
| 0.0318 | N#CC1CN(S(=O)(=O)c2cccc(C(=O)N3CCC[C@@H]3C(=O)N[C@@H](c3ccc(C(F)(F)F)cc3)C3CC3)c2)C1 [Example 30, 1-(3-((3-cyano-1-azetidinyl)sulfonyl)benzoyl)-N-((R)-cyclopropyl(4-(trifluoromethyl)phenyl)methyl)-D-prolinamide] |
